Results from ChEMBL document CHEMBL3991601, “The target landscape of clinical kinase drugs” (Science, 2017).
The source made the active and inactive calls.

Key:
[1] = molecular target: Guanine nucleotide-binding protein G(i) subunit alpha-2 (Homo sapiens, UniProt P04899)
[2] = molecular target: Serine/threonine-protein kinase MRCK gamma (Homo sapiens, UniProt Q6DT37)
[3] = molecular target: T1, Signal recognition particle receptor subunit alpha (Homo sapiens, UniProt P08240)
T1 sequence (P08240 whole entry): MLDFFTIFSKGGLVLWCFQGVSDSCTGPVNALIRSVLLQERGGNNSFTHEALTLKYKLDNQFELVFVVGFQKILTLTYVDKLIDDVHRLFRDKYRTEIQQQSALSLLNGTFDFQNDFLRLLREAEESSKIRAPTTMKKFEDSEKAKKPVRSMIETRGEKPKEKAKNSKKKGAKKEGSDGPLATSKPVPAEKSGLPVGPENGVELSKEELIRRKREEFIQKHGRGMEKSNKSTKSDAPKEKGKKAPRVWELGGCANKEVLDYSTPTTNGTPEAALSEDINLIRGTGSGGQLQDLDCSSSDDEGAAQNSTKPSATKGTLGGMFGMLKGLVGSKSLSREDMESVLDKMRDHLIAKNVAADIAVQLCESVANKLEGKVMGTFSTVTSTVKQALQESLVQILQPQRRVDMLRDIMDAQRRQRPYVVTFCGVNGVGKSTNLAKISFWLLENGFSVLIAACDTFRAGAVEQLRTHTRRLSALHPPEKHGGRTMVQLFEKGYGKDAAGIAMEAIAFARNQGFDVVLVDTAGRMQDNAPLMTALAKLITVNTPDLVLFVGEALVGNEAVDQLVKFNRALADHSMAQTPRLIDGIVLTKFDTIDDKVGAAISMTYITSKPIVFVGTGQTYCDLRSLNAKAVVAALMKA

[4] = molecular target: T2, Serine/threonine-protein kinase D3 (Homo sapiens, UniProt O94806)
T2 sequence (O94806 whole entry): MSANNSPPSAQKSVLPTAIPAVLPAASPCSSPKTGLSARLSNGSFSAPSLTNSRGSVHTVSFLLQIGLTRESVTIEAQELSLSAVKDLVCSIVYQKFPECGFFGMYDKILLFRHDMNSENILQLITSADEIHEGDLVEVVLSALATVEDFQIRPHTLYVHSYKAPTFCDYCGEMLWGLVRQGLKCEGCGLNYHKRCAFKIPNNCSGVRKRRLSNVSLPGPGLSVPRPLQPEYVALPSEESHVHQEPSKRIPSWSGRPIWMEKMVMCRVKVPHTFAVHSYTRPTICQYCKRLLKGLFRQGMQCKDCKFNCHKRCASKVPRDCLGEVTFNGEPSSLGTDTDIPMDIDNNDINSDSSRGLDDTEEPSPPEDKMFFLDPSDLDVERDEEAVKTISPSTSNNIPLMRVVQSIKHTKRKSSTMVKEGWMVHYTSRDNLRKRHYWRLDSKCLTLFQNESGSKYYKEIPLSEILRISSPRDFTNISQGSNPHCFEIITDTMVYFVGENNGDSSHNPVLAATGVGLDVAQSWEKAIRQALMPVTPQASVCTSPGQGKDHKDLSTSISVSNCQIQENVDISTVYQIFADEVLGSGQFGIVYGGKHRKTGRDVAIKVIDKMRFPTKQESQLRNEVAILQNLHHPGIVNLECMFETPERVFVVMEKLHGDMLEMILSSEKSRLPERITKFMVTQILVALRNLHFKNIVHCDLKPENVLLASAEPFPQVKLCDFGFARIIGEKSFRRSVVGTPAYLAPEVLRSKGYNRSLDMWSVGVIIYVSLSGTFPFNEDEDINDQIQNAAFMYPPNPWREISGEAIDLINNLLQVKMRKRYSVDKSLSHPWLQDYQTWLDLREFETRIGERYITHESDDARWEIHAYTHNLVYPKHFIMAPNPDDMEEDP

[5] = molecular target: T3, Tyrosine-protein kinase Tec (Homo sapiens, UniProt P42680)
T3 sequence (P42680 whole entry): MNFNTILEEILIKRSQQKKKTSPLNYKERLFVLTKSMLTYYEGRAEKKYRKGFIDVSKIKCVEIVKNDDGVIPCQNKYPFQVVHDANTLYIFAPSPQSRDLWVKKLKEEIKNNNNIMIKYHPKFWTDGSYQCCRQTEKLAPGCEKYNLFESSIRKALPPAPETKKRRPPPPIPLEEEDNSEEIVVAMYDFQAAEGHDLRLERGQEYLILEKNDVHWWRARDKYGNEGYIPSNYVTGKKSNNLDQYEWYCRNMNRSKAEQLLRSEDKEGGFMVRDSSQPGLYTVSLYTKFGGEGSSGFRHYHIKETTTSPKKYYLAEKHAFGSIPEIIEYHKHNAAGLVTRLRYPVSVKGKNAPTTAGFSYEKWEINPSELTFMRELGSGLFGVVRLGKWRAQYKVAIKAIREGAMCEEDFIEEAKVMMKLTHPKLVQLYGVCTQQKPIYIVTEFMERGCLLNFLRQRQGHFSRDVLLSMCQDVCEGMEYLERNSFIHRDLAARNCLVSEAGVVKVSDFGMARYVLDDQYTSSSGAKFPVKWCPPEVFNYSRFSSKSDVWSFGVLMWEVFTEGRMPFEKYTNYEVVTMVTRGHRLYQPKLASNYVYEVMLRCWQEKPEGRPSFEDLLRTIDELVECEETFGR

[6] = molecular target: Calcium/calmodulin-dependent protein kinase kinase 2 (Homo sapiens, UniProt Q96RR4)
Note: in the data inactive means no Kd found up to 30 µM.

Sequence of Serine/threonine-protein kinase MRCK gamma (Q6DT37 whole entry): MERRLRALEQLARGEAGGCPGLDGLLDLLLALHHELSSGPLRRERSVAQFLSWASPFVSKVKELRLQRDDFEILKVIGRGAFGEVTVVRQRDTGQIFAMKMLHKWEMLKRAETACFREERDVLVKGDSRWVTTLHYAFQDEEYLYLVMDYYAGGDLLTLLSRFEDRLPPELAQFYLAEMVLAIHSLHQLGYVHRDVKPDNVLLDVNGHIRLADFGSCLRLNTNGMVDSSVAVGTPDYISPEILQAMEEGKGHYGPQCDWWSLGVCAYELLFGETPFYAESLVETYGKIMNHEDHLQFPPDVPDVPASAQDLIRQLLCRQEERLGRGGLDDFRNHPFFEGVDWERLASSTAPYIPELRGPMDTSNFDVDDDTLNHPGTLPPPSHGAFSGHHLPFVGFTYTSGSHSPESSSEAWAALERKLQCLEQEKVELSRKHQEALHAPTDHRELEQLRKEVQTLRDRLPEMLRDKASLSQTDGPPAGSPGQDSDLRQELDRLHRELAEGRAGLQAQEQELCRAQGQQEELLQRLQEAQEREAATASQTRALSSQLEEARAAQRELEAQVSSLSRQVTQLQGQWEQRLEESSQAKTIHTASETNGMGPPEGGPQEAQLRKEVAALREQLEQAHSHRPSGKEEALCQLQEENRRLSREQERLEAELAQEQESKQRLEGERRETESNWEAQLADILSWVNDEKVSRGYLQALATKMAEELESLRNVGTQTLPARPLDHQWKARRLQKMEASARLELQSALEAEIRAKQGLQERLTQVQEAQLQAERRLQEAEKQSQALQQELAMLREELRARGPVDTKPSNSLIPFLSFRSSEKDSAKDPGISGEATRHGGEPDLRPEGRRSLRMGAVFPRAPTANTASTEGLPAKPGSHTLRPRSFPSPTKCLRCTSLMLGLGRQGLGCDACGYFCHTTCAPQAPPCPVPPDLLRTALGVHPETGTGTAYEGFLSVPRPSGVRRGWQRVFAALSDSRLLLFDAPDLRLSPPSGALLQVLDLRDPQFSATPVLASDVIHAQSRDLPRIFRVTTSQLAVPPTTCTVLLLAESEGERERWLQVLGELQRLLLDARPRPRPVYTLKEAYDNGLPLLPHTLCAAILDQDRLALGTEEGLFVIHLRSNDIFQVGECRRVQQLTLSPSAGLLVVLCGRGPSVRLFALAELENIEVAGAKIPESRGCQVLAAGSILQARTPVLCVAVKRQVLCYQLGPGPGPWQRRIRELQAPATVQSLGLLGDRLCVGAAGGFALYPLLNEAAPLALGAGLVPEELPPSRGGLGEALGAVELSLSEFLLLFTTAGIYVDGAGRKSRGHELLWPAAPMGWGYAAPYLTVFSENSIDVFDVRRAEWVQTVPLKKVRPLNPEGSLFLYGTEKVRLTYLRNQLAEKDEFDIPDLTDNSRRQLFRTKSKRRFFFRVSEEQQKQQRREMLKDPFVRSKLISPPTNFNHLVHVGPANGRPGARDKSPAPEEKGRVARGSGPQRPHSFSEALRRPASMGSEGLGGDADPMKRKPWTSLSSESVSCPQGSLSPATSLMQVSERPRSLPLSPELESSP
Sequence of Calcium/calmodulin-dependent protein kinase kinase 2 (Q96RR4 whole entry): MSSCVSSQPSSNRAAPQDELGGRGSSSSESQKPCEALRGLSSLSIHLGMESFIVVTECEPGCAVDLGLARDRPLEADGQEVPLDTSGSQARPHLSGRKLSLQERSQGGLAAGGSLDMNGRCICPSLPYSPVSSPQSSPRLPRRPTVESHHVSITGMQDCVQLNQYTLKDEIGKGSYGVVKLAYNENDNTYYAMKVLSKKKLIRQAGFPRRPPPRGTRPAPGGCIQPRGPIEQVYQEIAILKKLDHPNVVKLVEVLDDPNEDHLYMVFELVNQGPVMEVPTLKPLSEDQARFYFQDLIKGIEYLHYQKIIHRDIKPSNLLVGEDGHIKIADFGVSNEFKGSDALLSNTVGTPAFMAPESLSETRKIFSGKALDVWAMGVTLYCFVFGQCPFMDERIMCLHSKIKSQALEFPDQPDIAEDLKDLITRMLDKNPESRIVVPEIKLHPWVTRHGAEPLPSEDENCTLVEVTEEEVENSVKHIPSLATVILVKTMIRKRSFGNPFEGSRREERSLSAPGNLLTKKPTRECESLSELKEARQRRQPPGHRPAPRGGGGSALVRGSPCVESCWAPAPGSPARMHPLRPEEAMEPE
Sequence of Guanine nucleotide-binding protein G(i) subunit alpha-2 (P04899 whole entry): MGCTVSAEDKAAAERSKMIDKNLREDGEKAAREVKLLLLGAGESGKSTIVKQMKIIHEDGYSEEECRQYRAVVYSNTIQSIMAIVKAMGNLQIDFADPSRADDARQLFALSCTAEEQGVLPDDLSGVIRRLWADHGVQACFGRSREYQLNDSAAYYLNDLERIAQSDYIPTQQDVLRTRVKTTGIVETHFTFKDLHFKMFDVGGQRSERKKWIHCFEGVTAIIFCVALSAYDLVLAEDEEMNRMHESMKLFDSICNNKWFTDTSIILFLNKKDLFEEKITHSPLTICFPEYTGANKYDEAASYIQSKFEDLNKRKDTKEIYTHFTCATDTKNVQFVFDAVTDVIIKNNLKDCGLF

O=C(Nc1ccc(OC(F)(F)F)cc1)c1sccc1NCc1ccnc2ccccc12 [OSI-930]
Kd [1]: > 30 µM (inactive)
Kd [2]: > 30 µM (inactive)
Kd [3]: > 30 µM (inactive)
Kd [4]: > 30 µM (inactive)
Kd [5]: > 30 µM (inactive)
Kd [6]: > 30 µM (inactive)

C=CC(=O)Nc1cc(Nc2nccc(-c3cn(C)c4ccccc34)n2)c(OC)cc1N(C)CCN(C)C [OSIMERTINIB]
Kd [1]: > 30 µM (inactive)
Kd [2]: > 30 µM (inactive)
Kd [3]: > 30 µM (inactive)
Kd [4]: > 30 µM (inactive)
Kd [5]: 0.321 µM (active)
Kd [6]: > 30 µM (inactive)

FC(F)(F)c1ccc(CNc2ccc(Cc3c[nH]c4ncc(Cl)cc34)cn2)cn1 [PEXIDARTINIB]
Kd [1]: > 30 µM (inactive)
Kd [2]: > 30 µM (inactive)
Kd [3]: > 30 µM (inactive)
Kd [4]: > 30 µM (inactive)
Kd [5]: > 30 µM (inactive)
Kd [6]: > 30 µM (inactive)

O=C(NC[C@H](O)CO)c1ccncc1Nc1ccc(I)cc1F [PIMASERTIB]
Kd [1]: > 30 µM (inactive)
Kd [2]: > 30 µM (inactive)
Kd [3]: > 30 µM (inactive)
Kd [4]: > 30 µM (inactive)
Kd [5]: > 30 µM (inactive)
Kd [6]: > 30 µM (inactive)

COCCN1CCN(Cc2ccc(-c3n[nH]c4c3C(=O)c3c(NC(=O)NN5CCOCC5)cccc3-4)cc2)CC1 [RGB-286638]
Kd [1]: > 30 µM (inactive)
Kd [2]: > 30 µM (inactive)
Kd [3]: > 30 µM (inactive)
Kd [4]: 0.297 µM (active)
Kd [5]: > 30 µM (inactive)
Kd [6]: > 30 µM (inactive)

C=CC(=O)Nc1cccc(Nc2nc(Nc3ccc(N4CCN(C(C)=O)CC4)cc3OC)ncc2C(F)(F)F)c1 [ROCILETINIB]
Kd [1]: > 30 µM (inactive)
Kd [2]: > 30 µM (inactive)
Kd [3]: > 30 µM (inactive)
Kd [4]: > 30 µM (inactive)
Kd [5]: 0.288 µM (active)
Kd [6]: > 30 µM (inactive)

Cc1cc(C(=O)Nc2cc(Oc3ccc4nc(NC(=O)C5CC5)cn4n3)ccc2C)n(C)n1 [TAK-593]
Kd [1]: > 30 µM (inactive)
Kd [2]: > 30 µM (inactive)
Kd [3]: > 30 µM (inactive)
Kd [4]: > 30 µM (inactive)
Kd [5]: > 30 µM (inactive)
Kd [6]: > 30 µM (inactive)

Cc1cc(-c2cc(OC(=O)c3ccccc3)ccc2Cl)cc2nnc(Nc3ccc(OCCN4CCCC4)cc3)nc12 [TG100-801]
Kd [1]: > 30 µM (inactive)
Kd [2]: > 30 µM (inactive)
Kd [3]: > 30 µM (inactive)
Kd [4]: > 30 µM (inactive)
Kd [5]: > 30 µM (inactive)
Kd [6]: > 30 µM (inactive)

CNC(=O)c1cccc(-c2ccc3c(N4CCOC[C@@H]4C)nc(N4CCOC[C@@H]4C)nc3n2)c1 [VISTUSERTIB]
Kd [1]: > 30 µM (inactive)
Kd [2]: > 30 µM (inactive)
Kd [3]: > 30 µM (inactive)
Kd [4]: > 30 µM (inactive)
Kd [5]: > 30 µM (inactive)
Kd [6]: > 30 µM (inactive)
